Where “and” joins values, the source holds several entries; their conditions need not be identical. Identical values can stand only once.
Assays:
[1] = molecular target: T1, FlaA1 (Helicobacter pylori, UniProt O25511); assay: Substrate specificity of FlaA1 (catalysis with related sugar-nucleotides); assay type: biochemical
T1 construct: hexahistidine tag (N); made in house; host or cells: E. coli BL21(DE3)pLysS (pET23 derivative)

[2] = molecular target: T1, FlaA1; assay: DMAB assay: enzymatic conversion of UDP-GlcNAc and UDP-GalNAc by FlaA1; assay type: biochemical; details: incubation with FlaA1, 37° C., 20 mM Tris pH 7, 1 mM NAD+
Protocol: Reactions were performed with a total reaction volume of 35 μl at 37° C. in 20 mM Tris pH 7 in the presence of 1.5 mM substrate and 1 mM NAD^+. The reactions were stopped by acid hydrolysis of the UDP moiety of the substrate. For this purpose, the samples were acidified to pH 2 by addition of 7 μl of HCl 1 N, boiled for 6 min, and neutralised by addition of 7 μl of NaOH 1 N. The spectrophotometric quantification of GalNAc and GlcNAc using DMAB was performed as described by Creuzenet et al. 2000. Briefly summarized, 100 μl of 0.2 M sodium tetraborate pH 9.1 were added to 50 μl of quenched and neutralised enzymatic reactions and boiled immediately for 3 min. 40 μl of this mixture were transferred to a microtitration plate and 200 μl of DMAB reagent (1% in glacial acetic acid/HCl 99/1 v/v) were added. After incubation for 30 min at 37° C., the OD595 nm was recorded using a microplate reader. The assay was done in duplicate for each reaction tested. Standard curves were prepared using UDP-GlcNAc and UDP-GalNAc that were subjected to acid hydrolysis in the same conditions as described above.

[3] = molecular target: T1, FlaA1; assay: Capillary electrophoresis analysis of reaction products and kinetic parameters of FlaA1; assay type: biochemical; details: for reaction products identified by capillary electrophoresis: sugar-nucleotide used as substrate of FlaA1
Protocol: The same reactions as above were prepared for capillary analysis using varying amounts of enzyme (440 or 54 ng) and 1 mM NAD^+ or not. The reaction mix was incubated for different reaction times. The specific conditions are indicated above. After incubation at 37° C. for the required amount of time, the reactions were quenched by boiling the sample for 6 min. Time course studies were performed with final sugar-nucleotide concentrations of 0.1 and 1.5 mM without NAD^+. Samples were quenched every 15 minutes for 2 h. […] Reactions were also performed using varying buffers such as 20 mM sodium phosphate or bis-tris-propane at pH 7, or 20 mM sodium acetate pH 6.5 and processed for CE analysis as described above.
Capillary electrophoresis (CE) analysis were performed using a P/ACE 5000 system (Beckman, Fullerton, Calif.) with UV detection as described before (Creuzenet et al. 2000). Briefly summarised, the running buffer was 25 mM sodium tetraborate pH 9.4. The capillary was bare silica 75 μm×57 cm, with a detector at 50 cm. The capillary was conditioned before each run by washing with 0.2 M NaOH for 2 min, water for 2 min, and running buffer for 2 min. Samples were introduced by pressure injection for 4 s and the separation was performed at 22 kV. Peak integration was done using the Beckman P/ACE Station software. Kinetic parameters were calculated by linear regression from Eadie-Hofstee plots.
The same reactions as above were prepared for capillary electrophoresis analysis and were quenched by boiling for 6 minutes without prior acidification. Capillary electrophoresis (CE) analysis was performed as described earlier (Creuzenet et al. 2000).

[4] = molecular target: C4 epimerase WbpP (Pseudomonas aeruginosa, UniProt Q8KN66); details: Creuzenet et al. 2000; cited from earlier work
Sequence of C4 epimerase WbpP (Q8KN66 whole entry): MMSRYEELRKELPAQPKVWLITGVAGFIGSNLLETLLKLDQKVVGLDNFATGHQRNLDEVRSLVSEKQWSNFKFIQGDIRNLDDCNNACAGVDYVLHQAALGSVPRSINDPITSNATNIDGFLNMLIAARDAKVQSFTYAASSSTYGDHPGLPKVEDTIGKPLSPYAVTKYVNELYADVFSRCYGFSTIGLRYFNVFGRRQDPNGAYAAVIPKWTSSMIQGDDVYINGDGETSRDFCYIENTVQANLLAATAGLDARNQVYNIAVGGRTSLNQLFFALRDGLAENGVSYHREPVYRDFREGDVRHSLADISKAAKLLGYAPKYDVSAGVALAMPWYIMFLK

T1 sequence (O25511 whole entry): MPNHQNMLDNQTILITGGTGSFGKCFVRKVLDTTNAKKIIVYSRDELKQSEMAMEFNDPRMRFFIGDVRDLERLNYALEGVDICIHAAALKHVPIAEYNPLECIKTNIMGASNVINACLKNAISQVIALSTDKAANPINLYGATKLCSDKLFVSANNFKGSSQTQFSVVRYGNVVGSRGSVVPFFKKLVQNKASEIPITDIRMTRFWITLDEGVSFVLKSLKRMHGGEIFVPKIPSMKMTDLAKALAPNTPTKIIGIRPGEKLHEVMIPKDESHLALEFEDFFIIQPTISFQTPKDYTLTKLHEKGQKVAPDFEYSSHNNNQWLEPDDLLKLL

| SMILES | catalysis by FlaA1 (substrate specificity) [1] | substrate conversion (decrease in OD595nm, DMAB assay) [2] [%] | reaction products identified by capillary electrophoresis [3] | kcat ([3]; pH 7, 37° C., 12.8 pmol enzyme) | Km ([3]; pH 7, 37° C., 440 ng fresh enzyme, no NAD+, 20 min) [µM] | Vmax ([3]; pH 7, 37° C., 440 ng fresh enzyme, no NAD+, 20 min, total substrate conversion) | Km [4] [µM] |
| --- | --- | --- | --- | --- | --- | --- | --- |
| Nc1nc2c(ncn2[C@@H]2O[C@H](COP(=O)(O)OP(=O)(O)O[C@H]3O[C@H](CO)[C@@H](O)[C@H](O)[C@@H]3O)[C@@H](O)[C@H]2O)c(=O)[nH]1 [GDP-mannose] | Absence of catalysis | – | – | – | – | – | – |
| CC(=O)N[C@H]1[C@@H](OP(=O)(O)OP(=O)(O)OC[C@H]2O[C@@H](n3ccc(=O)[nH]c3=O)[C@H](O)[C@@H]2O)O[C@H](CO)[C@H](O)[C@@H]1O [UDP-GalNAc, UDP-N-acetylgalactosamine] | can not proceed to catalysis | < 5 | no reaction products could be identified | – | – | – | – |
| CC(=O)N[C@H]1[C@@H](OP(=O)(O)OP(=O)(O)OC[C@H]2O[C@@H](n3ccc(=O)[nH]c3=O)[C@H](O)[C@@H]2O)O[C@H](CO)[C@@H](O)[C@@H]1O [UDP-GlcNAc, UDP-N-acetylglucosamine] | – | ≤ 55 | two reaction products were identified | 0.085 s⁻¹ and 0.085 ± 0.0067 s⁻¹ | 159 | 0.065 nmol/min and 0.065 ± 0.006 nmol/min | 220 |
| Cc1cn([C@H]2C[C@H](O)[C@@H](COP(=O)(O)OP(=O)(O)OC3O[C@H](CO)[C@@H](O)[C@H](O)[C@H]3O)O2)c(=O)[nH]c1=O (stereo partly drawn) [dTDP-D-glucose] | Absence of catalysis | – | – | – | – | – | – |

From US6689567B1, “Method for assaying the function of FlaA1 and WbpM” (priority 1999, dated 2004)
